Measured values taken from patent publication US10112899B2 (ViiV HEALTHCARE UK LIMITED, priority 2014, dated 2018).

Test system: HIV in the HTLV-1 transformed cell line MT-4
Assay: organism not typed
Format: cell-based
Settings: MT4, 96 h, MT-4 cells; luciferase/cell titer glo readout after 96 hours; 10 point dose response

Compound `COc1cccc(C(=O)N2Cc3c(C)c(-c4cc(F)c5c(c4C)CCCO5)c([C@H](OC(C)(C)C)C(=O)O)c(C)c3C2)c1F` (atropisomer, axis not shown; (M)) [Example 148, (S)-2-(tert-butoxy)-2-((M)-2-(2-fluoro-3-methoxybenzoyl)-6-(8-fluoro-5-methylchroman-6-yl)-4,7-dimethylisoindolin-5-yl)acetic acid] has an IC50 of 9 nM.
Work on `Cc1cccc(C(=O)N2Cc3c(C)c(-c4cc(F)c5c(c4C)CCCO5)c([C@H](OC(C)(C)C)C(=O)O)c(C)c3C2)c1` (atropisomer, axis not shown; (M)) [Example 149, (S)-2-(tert-butoxy)-2-((M)-6-(8-fluoro-5-methylchroman-6-yl)-4,7-dimethyl-2-(3-methylbenzoyl)isoindolin-5-yl)acetic acid] yielded an IC50 of 2 nM.
Work on `COc1ccc(F)cc1C(=O)N1Cc2c(C)c(-c3cc(F)c4c(c3C)CCCO4)c([C@H](OC(C)(C)C)C(=O)O)c(C)c2C1` (atropisomer, axis not shown; (M)) [Example 150, (S)-2-(tert-butoxy)-2-((M)-2-(5-fluoro-2-methoxybenzoyl)-6-(8-fluoro-5-methylchroman-6-yl)-4,7-dimethylisoindolin-5-yl)acetic acid] yielded an IC50 of 4 nM.
With `Cc1c(-c2c(C)c3c(c(C)c2[C@H](OC(C)(C)C)C(=O)O)CN(C(=O)c2cccc4sccc24)C3)cc(F)c2c1CCCO2` (atropisomer, axis not shown; (M)) [Example 151, (S)-2-((M)-2-(benzo[b]thiophene-4-carbonyl)-6-(8-fluoro-5-methylchroman-6-yl)-4,7-dimethylisoindolin-5-yl)-2-(tert-butoxy)acetic acid] the IC50 was 5 nM.
In the case of `Cc1c(-c2c(C)c3c(c(C)c2[C@H](OC(C)(C)C)C(=O)O)CN(C(=O)c2cccc4c2OCC4)C3)cc(F)c2c1CCCO2` (atropisomer, axis not shown; (M)) [Example 152, (S)-2-(tert-butoxy)-2-((M)-2-(2,3-dihydrobenzofuran-7-carbonyl)-6-(8-fluoro-5-methylchroman-6-yl)-4,7-dimethylisoindolin-5-yl)acetic acid], the IC50 is reported as 2 nM.
Work on `Cc1c(-c2c(C)c3c(c(C)c2[C@H](OC(C)(C)C)C(=O)O)CN(C(=O)c2cccc4c2OCCO4)C3)cc(F)c2c1CCCO2` (atropisomer, axis not shown; (M)) [Example 153, (S)-2-(tert-butoxy)-2-((M)-2-(2,3-dihydrobenzo[b][1,4]dioxine-5-carbonyl)-6-(8-fluoro-5-methylchroman-6-yl)-4,7-dimethylisoindolin-5-yl)acetic acid] yielded an IC50 of 4 nM.
In the case of `Cc1c(-c2c(C)c3c(c(C)c2[C@H](OC(C)(C)C)C(=O)O)CN(C(=O)c2ccc4c(cnn4C)c2)C3)cc(F)c2c1CCCO2` (atropisomer, axis not shown; (M)) [Example 154, (S)-2-(tert-butoxy)-2-((M)-6-(8-fluoro-5-methylchroman-6-yl)-4,7-dimethyl-2-(1-methyl-1H-indazole-5-carbonyl)isoindolin-5-yl)acetic acid], the IC50 is reported as 8 nM.
In the case of `Cc1c(-c2c(C)c3c(c(C)c2[C@H](OC(C)(C)C)C(=O)O)CN(C(=O)c2ccccc2C(C)(C)C)C3)cc(F)c2c1CCCO2` (atropisomer, axis not shown; (M)) [Example 155, (S)-2-(tert-butoxy)-2-(2-(2-(tert-butyl)benzoyl)-6-((M)-8-fluoro-5-methylchroman-6-yl)-4,7-dimethylisoindolin-5-yl)acetic acid], the IC50 is reported as 48 nM.
Work on `COc1cc(C(=O)N2Cc3c(C)c(-c4cc(F)c5c(c4C)CCCO5)c([C@H](OC(C)(C)C)C(=O)O)c(C)c3C2)ccc1C` (atropisomer, axis not shown; (M)) [Example 156, (S)-2-(tert-butoxy)-2-(6-((M)-8-fluoro-5-methylchroman-6-yl)-2-(3-methoxy-4-methylbenzoyl)-4,7-dimethylisoindolin-5-yl)acetic acid] yielded an IC50 of 3 nM.
